Results: patent US12180187B2, “1-phenyl-5-azinylpyrazolyl-3-oxyalkyl acids and their use for controlling unwanted plant growth” (BAYER AKTIENGESELLSCHAFT, priority 2019, dated 2024)

Columns and labels:
ECHCG [1] = assay: Pre-emergence action against ECHCG, 1280 g/ha; format: in vivo, Echinochloa crus-galli; conditions: visual scoring after about 3 weeks vs untreated controls, 100% = plants have died, 0% = like control plants
How it was run: (§1)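 Compound applied as WP or EC in aqueous spray (0.5% additive, 600 L/ha) to the surface of sandy loam covering freshly sown seeds. After about 3 weeks under good greenhouse conditions, damage is given as visual percentage, 100% meaning plant death.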

LOLRI [2] = assay: Pre-emergence action against LOLRI, 1280 g/ha; format: in vivo, Lolium rigidum; conditions: visual scoring after about 3 weeks vs untreated controls, 100% = plants have died, 0% = like control plants
How it was run: as §1

POAAN [3] = assay: Pre-emergence action against POAAN, 1280 g/ha; format: in vivo, Poa annua; conditions: visual scoring after about 3 weeks vs untreated controls, 100% = plants have died, 0% = like control plants
How it was run: as §1

SETVI [4] = assay: Pre-emergence action against SETVI, 1280 g/ha; format: in vivo, Setaria viridis; conditions: visual scoring after about 3 weeks vs untreated controls, 100% = plants have died, 0% = like control plants
How it was run: as §1

AMARE [5] = assay: Pre-emergence action against AMARE, 1280 g/ha; format: in vivo, Amaranthus retroflexus; conditions: scored visually after about 3 weeks vs untreated controls (100% = plants have died)
How it was run: as §1

MATIN [6] = assay: Pre-emergence action against MATIN, 1280 g/ha; format: in vivo, Tripleurospermum inodorum (Matricaria inodora); conditions: scored visually after about 3 weeks vs untreated controls (100% = plants have died)
How it was run: as §1

STEME [7] = assay: Pre-emergence action against STEME, 1280 g/ha; format: in vivo, Stellaria media; conditions: scored visually after about 3 weeks vs untreated controls (100% = plants have died)
How it was run: as §1

ALOMY [8] = assay: Post-emergence action against ALOMY, 1.28 kg/ha; format: in vivo, Alopecurus myosuroides; conditions: dosage 1280 g/ha, visual rating about 3 weeks after treatment vs untreated controls
How it was run: (§2)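 Weeds grown in sandy loam in a greenhouse were sprayed at the one-leaf stage, 2–3 weeks after sowing, with WP or EC formulations in water containing 0.5% additive at 600 L/ha. About 3 weeks later, damage was scored visually versus untreated controls (0% = like control, 100% = dead).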

ECHCG [9] = assay: Post-emergence action against ECHCG, 1.28 kg/ha; format: in vivo, Echinochloa crus-galli; conditions: dosage 1280 g/ha, visual rating about 3 weeks after treatment vs untreated controls
How it was run: as §2

POAAN [10] = assay: Post-emergence action against POAAN, 1.28 kg/ha; format: in vivo, Poa annua; conditions: dosage 1280 g/ha, visual rating about 3 weeks after treatment vs untreated controls
How it was run: as §2

SETVI [11] = assay: Post-emergence action against SETVI, 1.28 kg/ha; format: in vivo, Setaria viridis; conditions: dosage 1280 g/ha, visual rating about 3 weeks after treatment vs untreated controls
How it was run: as §2

KCHSC = assay: Post-emergence action against KCHSC, 1.28 kg/ha; format: in vivo, Bassia scoparia; conditions: dosage 1280 g/ha, visual rating about 3 weeks after treatment vs untreated controls (100% = plants died)
Method: (§3) • a) Seeds of mono- and dicotyledonous weed plants are placed in plastic pots in sandy loam soil (twin sowing with one species each of mono- or dicotyledonous weed plants per pot), covered with soil and cultivated in a greenhouse under controlled growth conditions. 2 to 3 weeks after sowing, the test plants are treated at the one-leaf stage. The compounds of the invention, formulated in the form of wettable powders (WP) or as emulsion concentrates (EC), are applied to the green parts of the plants as aqueous suspension or emulsion with addition of 0.5% additive at a water application rate equivalent to 600 litres per hectare. After the test plants have been kept in the greenhouse under optimum growth conditions for about 3 weeks, the activity of the preparations is rated visually in comparison to untreated controls. For example, 100% activity=the plants have died, 0% activity=like control plants. As shown by the results, compounds of the general formula (I) of the invention, in post-emergence treatment, have very good herbicidal efficacy (90% to 100% herbicidal action) against harmful plants such as Abutilon theophrasti, Digitaria sanguinalis, Echinochloa crus-galli, Matricaria inodora, Poa annua, at an application rate of 1.28 kg of active substance per hectare.

VERPE [12] = assay: Post-emergence action against VERPE, 1.28 kg/ha; format: in vivo, Veronica persica; conditions: dosage 1280 g/ha, visual rating about 3 weeks after treatment vs untreated controls (100% = plants died)
How it was run: as §2

DIGSA [13] = assay: Pre-emergence action against DIGSA, 1280 g/ha; format: in vivo, Digitaria sanguinalis; conditions: visual scoring after about 3 weeks vs untreated controls, 100% = plants have died, 0% = like control plants
How it was run: as §1

VERPE [14] = assay: Pre-emergence action against VERPE, 1280 g/ha; format: in vivo, Veronica persica; conditions: scored visually after about 3 weeks vs untreated controls (100% = plants have died)
How it was run: as §1

DIGSA [15] = assay: Post-emergence action against DIGSA, 1.28 kg/ha; format: in vivo, Digitaria sanguinalis; conditions: dosage 1280 g/ha, visual rating about 3 weeks after treatment vs untreated controls
How it was run: as §2

ABUTH = assay: Post-emergence action against ABUTH, 1.28 kg/ha; format: in vivo, Abutilon theophrasti; conditions: dosage 1280 g/ha, visual rating about 3 weeks after treatment vs untreated controls (100% = plants died)
How it was run: as §2

MATIN [16] = assay: Post-emergence action against MATIN, 1.28 kg/ha; format: in vivo, Tripleurospermum inodorum (Matricaria inodora); conditions: dosage 1280 g/ha, visual rating about 3 weeks after treatment vs untreated controls (100% = plants died)
How it was run: as §2

STEME [17] = assay: Post-emergence action against STEME, 1.28 kg/ha; format: in vivo, Stellaria media; conditions: dosage 1280 g/ha, visual rating about 3 weeks after treatment vs untreated controls (100% = plants died)
How it was run: as §2

ALOMY [18] = assay: Pre-emergence action against ALOMY, 1280 g/ha; format: in vivo, Alopecurus myosuroides; conditions: visual scoring after about 3 weeks vs untreated controls, 100% = plants have died, 0% = like control plants
How it was run: as §1

AMARE [19] = assay: Post-emergence action against AMARE, 1.28 kg/ha; format: in vivo, Amaranthus retroflexus; conditions: dosage 1280 g/ha, visual rating about 3 weeks after treatment vs untreated controls (100% = plants died)
How it was run: as §2

LOLRI [20] = assay: Post-emergence action against LOLRI, 1.28 kg/ha; format: in vivo, Lolium rigidum; conditions: dosage 1280 g/ha, visual rating about 3 weeks after treatment vs untreated controls
Method: as §3

Structure (SMILES) | Post-emergence action against ALOMY (ALOMY [8]) [%] | Post-emergence action against SETVI (SETVI [11]) [%] | Post-emergence action against KCHSC (KCHSC) [%] | Pre-emergence action against DIGSA (DIGSA [13]) [%] | Pre-emergence action against LOLRI (LOLRI [2]) [%] | Pre-emergence action against POAAN (POAAN [3]) [%] | Pre-emergence action against SETVI (SETVI [4]) [%] | Pre-emergence action against AMARE (AMARE [5]) [%] | Pre-emergence action against MATIN (MATIN [6]) [%] | Pre-emergence action against STEME (STEME [7]) [%] | Pre-emergence action against VERPE (VERPE [14]) [%] | Post-emergence action against DIGSA (DIGSA [15]) [%] | Post-emergence action against MATIN (MATIN [16]) [%] | Post-emergence action against STEME (STEME [17]) [%] | Post-emergence action against VERPE (VERPE [12]) [%] | Pre-emergence action against ALOMY (ALOMY [18]) [%] | Pre-emergence action against ECHCG (ECHCG [1]) [%] | Post-emergence action against POAAN (POAAN [10]) [%] | Post-emergence action against AMARE (AMARE [19]) [%] | Post-emergence action against ECHCG (ECHCG [9]) [%] | other results
CCOC(=O)COc1nn(-c2ccccc2F)c(-c2ccnnc2)c1Br [IV-001, Ethyl {[4-bromo-1-(2-fluorophenyl)-5-(pyridazin-4-yl)-1H-pyrazol-3-yl]oxy}acetate] | 100 | 100 | 90 |  |  |  |  |  |  |  |  |  |  |  |  |  |  |  |  |  | pest or weed control at 1280 g/ha (ECHCG [1]; Echinochloa crus-galli, 504 h): 90%; pest or weed control at 1280 g/ha (LOLRI [2]; Lolium rigidum, 504 h): 100%; pest or weed control at 1280 g/ha (POAAN [3]; Poa annua, 504 h): 100%; pest or weed control at 1280 g/ha (SETVI [4]; Setaria viridis, 504 h): 100%; pest or weed control at 1280 g/ha (AMARE [5]; Amaranthus retroflexus, 504 h): 90%; pest or weed control at 1280 g/ha (MATIN [6]; Tripleurospermum inodorum, 504 h): 90%; pest or weed control at 1280 g/ha (STEME [7]; Stellaria media, 504 h): 90%; pest or weed control at 1280 g/ha (ECHCG [9]; Echinochloa crus-galli, 504 h): 90%; pest or weed control at 1280 g/ha (POAAN [10]; Poa annua, 504 h): 100%; pest or weed control at 1280 g/ha (VERPE [12]; Veronica persica, 504 h): 90%
O=C(O)COc1nn(-c2ccc(F)cc2)c(-c2ccc(F)nc2)c1I [VII-069] | 100 |  | 90 | 100 | 90 | 100 | 100 | 100 | 90 | 100 | 100 | 100 | 90 | 90 | 100 |  |  |  |  |  | Post-emergence action against ABUTH (ABUTH): 90%
CCOC(=O)COc1nn(-c2ccc(F)cc2)c(-c2ccc(F)nc2)c1I [VII-102] | 100 |  | 90 | 100 | 100 | 100 | 100 | 90 | 90 | 90 | 100 |  | 100 |  | 100 | 90 | 100 | 100 | 100 |  | 
COC(=O)CNC(=O)COc1nn(-c2ccccc2F)c(-c2ccnc(F)c2)c1Br [VIII-009] | 100 | 90 | 90 | 100 | 90 | 100 | 100 | 100 | 100 | 100 | 100 | 100 | 90 |  | 100 |  | 100 | 100 | 90 | 100 | 
COC(=O)COc1nn(-c2cc(F)ccc2F)c(-c2ccnc(F)c2)c1Br [VIII-010] | 100 | 100 | 90 | 100 | 100 | 100 | 100 | 100 | 100 | 100 | 100 | 100 | 100 | 100 | 90 | 100 | 100 | 100 | 100 | 100 | Post-emergence action against LOLRI (LOLRI [20]): 100%
